Experiments:
human tumor cell lines = experiment: Example 5: dose response of growth of human tumor cell lines, overall panel; type: cell-based
Experimental: (§1) Indeed, 70% of the cell lines were shown not only to experience precluded growth, but cell death, when exposed to less then 100 μM of the active ingredient.

L1210 mouse cells = experiment: Example 3: growth of L1210 mouse cells with bis(halomethyl)phenanthrolines plus copper, with or without BCS; type: cell-based; conditions: at highest concentration tested (3 μM); copper 10 μM, BCS 100 μM
Experimental: Bis(halomethyl)phenanthroline compounds were synthesized according to the method of Newkome et al., J. Org. Chem., 48, 5112-5114 (1983). Such compounds, namely, 2,9-bis(bromomethyl)phenanthroline and 2,9-bis(chloromethyl)phenanthroline, were added in the presence of copper, but with or without BCS (the copper chelator shown in Examples 1 and 2 to reduce inhibitory activity), to the culture media of L1210 mouse cells, using the same methods of Examples 1 and 2. The concentrations of copper and BCS used in these experiments were 10 μM and 100 μM, respectively. The growth of the cells as a percent of control were determined, and the results plotted in the graph of FIG. 3, wherein open squares (.quadrature.) represent the compound plus copper chelate and solid squares (.box-solid.) represent the compound together with both copper and BCS addition to the culture medium.

DMS 273 = experiment: Dose response of growth, tumor cell line; type: cell-based; conditions: Homo sapiens, DMS 273, small cell lung cancer
[1] = mouse
HCT-15 = experiment: Dose response of growth, tumor cell line; type: cell-based; conditions: Homo sapiens, HCT-15, colon cancer
Experimental: as §1

KM12 = experiment: Dose response of growth, tumor cell line; type: cell-based; conditions: Homo sapiens, KM12, colon cancer
Experimental: as §1

NCI-H226 = experiment: Dose response of growth, tumor cell line; type: cell-based; conditions: Homo sapiens, NCI-H226, non-small cell lung cancer
Experimental: as §1

MOLT-4 = experiment: Dose response of growth, tumor cell line; type: cell-based; conditions: Homo sapiens, MOLT-4, leukemia
Experimental: as §1

IGROVI = experiment: Dose response of growth, tumor cell line; type: cell-based; conditions: Homo sapiens, ovarian cancer
Experimental: as §1

HCT-116 = experiment: Dose response of growth, tumor cell line; type: cell-based; conditions: Homo sapiens, HCT-116, colon cancer
Experimental: as §1

U251 = experiment: Dose response of growth, tumor cell line; type: cell-based; conditions: Homo sapiens, U-251, U251, CNS cancer
Experimental: as §1

HOP-62 = experiment: Dose response of growth, tumor cell line; type: cell-based; conditions: Homo sapiens, HOP-62, non-small cell lung cancer
Experimental: as §1

M19-MEL = experiment: Dose response of growth, tumor cell line; type: cell-based; conditions: Homo sapiens, melanoma
Experimental: as §1

OVCAR-3 = experiment: Dose response of growth, tumor cell line; type: cell-based; conditions: Homo sapiens, OVCAR-3, ovarian cancer
Experimental: as §1

UACC-62 = experiment: Dose response of growth, tumor cell line; type: cell-based; conditions: Homo sapiens, UACC-62, melanoma
Experimental: as §1

K-562 = experiment: Dose response of growth, tumor cell line; type: cell-based; conditions: Homo sapiens, K562, K-562, leukemia
Experimental: as §1

UACC-257 = experiment: Dose response of growth, tumor cell line; type: cell-based; conditions: Homo sapiens, UACC-257, melanoma
Experimental: as §1

SK-MEL-5 = experiment: Dose response of growth, tumor cell line; type: cell-based; conditions: Homo sapiens, SK-MEL-5, melanoma
Experimental: as §1

KM20L2 = experiment: Dose response of growth, tumor cell line; type: cell-based; conditions: Homo sapiens, KM-20L2, KM20L2, colon cancer
Experimental: as §1

OVCAR-5 = experiment: Dose response of growth, tumor cell line; type: cell-based; conditions: Homo sapiens, OVCAR-5, ovarian cancer
Experimental: as §1

OVCAR-8 = experiment: Dose response of growth, tumor cell line; type: cell-based; conditions: Homo sapiens, OVCAR-8, ovarian cancer
Experimental: as §1

HCC-2998 = experiment: Dose response of growth, tumor cell line; type: cell-based; conditions: Homo sapiens, HCC-2998, colon cancer
Experimental: as §1

[2] = read-out: 50% Growth (Relative to Control)
[3] = read-out: No Growth (Relative to Control)

For `ClCc1ccc2ccc3ccc(CCl)nc3c2n1` [2,9-bis(chloromethyl)-1,10-phenanthroline], the IC (total growth inhibition) (human tumor cell lines; Homo sapiens, average, majority of cell lines, read-out: average concentration to preclude growth of the transformed cells in vitro, majority of cell lines) was ~5.66 µM, the “cessation of growth of transformed cells” value (human tumor cell lines; human tumor cell lines) was “nearly all transformed cells cease growth in the presence of micromolar concentrations” and the “difference between the copper-chelated and the unchelated derivative” value (L1210 mouse cells) was 10%. The IC50 (DMS 273; [2]) was 2.84 µM, the IC100 (DMS 273; [3]) was > 100 µM and the “tolerated in vivo concentration relative to 100 μM in vitro” value [1] was “at least 8.5 times”. The “toxicity in an animal” value ([1]; in vivo, 250 mg/kg) was “not toxic”, the “tolerability in mammals compared with the brominated derivative” value ([1]; in vivo, ip) was “better tolerated” and the IC50 (HCT-15; [2]) was 1.95 µM. For the same molecule, the CC50 (HCT-15; read-out: 50% Loss (50% kill)) was > 100 µM, the IC100 (HCT-15; [3]) was 6.47 µM and the IC50 (KM12; [2]) was 0.761 µM. The CC50 (KM12; read-out: 50% Loss (50% kill)) was 6.43 µM, the IC100 (KM12; [3]) was 2.39 µM and the IC50 (NCI-H226; [2]) was 3.06 µM. It also gave a CC50 (NCI-H226; read-out: 50% Loss (50% kill)) of 68.3 µM, an IC100 (NCI-H226; [3]) of 9.91 µM and an IC50 (MOLT-4; [2]) of 1.73 µM. The CC50 (MOLT-4; read-out: 50% Loss (50% kill)) was 9.34 µM, the IC100 (MOLT-4; [3]) was 4.02 µM and the IC50 (IGROVI; [2]) was 1.51 µM. The CC50 (IGROVI; read-out: 50% Loss (50% kill)) was 6.25 µM, the IC100 (IGROVI; [3]) was 3.07 µM and the IC50 (HCT-116; [2]) was 1.8 µM. For the same molecule, the CC50 (HCT-116; read-out: 50% Loss (50% kill)) was 8.31 µM, the IC100 (HCT-116; [3]) was 3.87 µM and the IC50 (U251; [2]) was 2.06 µM. The CC50 (U251; read-out: 50% Loss (50% kill)) was 8.11 µM, the IC100 (U251; [3]) was 4.09 µM and the IC50 (HOP-62; [2]) was 2.29 µM. The CC50 (HOP-62; read-out: 50% Loss (50% kill)) was 19.2 µM, the IC100 (HOP-62; [3]) was 5.3 µM and the IC50 (M19-MEL; [2]) was 1.31 µM. The CC50 (M19-MEL; read-out: 50% Loss (50% kill)) was 5.28 µM, the IC100 (M19-MEL; [3]) was 2.63 µM and the IC50 (OVCAR-3; [2]) was 1.75 µM. The CC50 (OVCAR-3; read-out: 50% Loss (50% kill)) was 18.4 µM, the IC100 (OVCAR-3; [3]) was 4.93 µM and the IC50 (UACC-62; [2]) was 1.18 µM. It also gave a CC50 (UACC-62; read-out: 50% Loss (50% kill)) of 5.07 µM, an IC100 (UACC-62; [3]) of 2.45 µM and an IC50 (K-562; [2]) of 3.19 µM. For the same molecule, the CC50 (K-562; read-out: 50% Loss (50% kill)) was > 100 µM, the IC100 (K-562; [3]) was > 100 µM and the IC50 (UACC-257; [2]) was 0.78 µM. The CC50 (UACC-257; read-out: 50% Loss (50% kill)) was 5.58 µM, the IC100 (UACC-257; [3]) was 2.03 µM and the IC50 (SK-MEL-5; [2]) was 1.59 µM. For the same molecule, the CC50 (SK-MEL-5; read-out: 50% Loss (50% kill)) was 9.45 µM, the IC100 (SK-MEL-5; [3]) was 3.88 µM and the IC50 (KM20L2; [2]) was 2.72 µM. It also gave a CC50 (KM20L2; read-out: 50% Loss (50% kill)) of 28.3 µM, an IC100 (KM20L2; [3]) of 7.21 µM and an IC50 (OVCAR-5; [2]) of 1.87 µM. The CC50 (OVCAR-5; read-out: 50% Loss (50% kill)) was 6.63 µM, the IC100 (OVCAR-5; [3]) was 3.52 µM and the IC50 (OVCAR-8; [2]) was 6.85 µM. The CC50 (OVCAR-8; read-out: 50% Loss (50% kill)) was > 100 µM, the IC100 (OVCAR-8; [3]) was > 100 µM and the IC50 (HCC-2998; [2]) was 1.56 µM. It also gave a CC50 (HCC-2998; read-out: 50% Loss (50% kill)) of 6.18 µM and an IC100 (HCC-2998; [3]) of 3.11 µM.

Reference: patent US5545639A, “Method of inhibiting transformed cells” (The United States of America as represented by the …, priority 1994, dated 1996)
